Patent US11497740B2, “Use of Jumonji C demethylase inhibitors for the treatment and prevention of chemotherapy resistance and radioresistance in cancer” (THE BOARD OF REGENTS OF THE UNIVERSITY OF TEXAS SYSTEM, priority 2016, dated 2022)

Assays:
H1299 Parental cells = experiment: Microarray gene expression after 24 h treatment, H1299 Parental cells; format: cell-based, human; details: 0.2 μM JIB-04 or 1 μM GSK-J4, fold changes ≥1.5, P ≤0.05
Description: Gene expression profiling was performed using Illumina HumanWG-6 V3 BeadArrays (for NSCLC patient tumors) or Illumina HumanHT-12 V4 BeadArrays (for cell lines and xenografts). Cell line and xenograft microarrays included biological replicates (Cell lines: 5 for parental, 3 for most resistant variant, 2 for each intermediate resistance time-point; Xenografts: 3 tumors each for parental and resistant group). Data were pre-processed using the R package mbcb for background correction (Ding et al., 2008), then log-transformed and quantile-normalized with the R package preprocessCore or using in-house MATRIX software (MicroArrayTRansformation In eXcel). Microarray data can be found under GEO accession GSE77209.
Log ratios, unpaired t-test p values and color-coded heat maps were obtained using MATRIX. For comparisons involving progressively resistant cell line series, analyses were performed using R package by fitting linear regression model on gene expression data against the log transformed IC50 values as measures of drug response. We fitted beta-uniform mixture model to a set of p-values using the R package ClassComparison. Genes with p-values below the FDR cutoff of 0.1 were considered statistically significant. For xenograft data, differential gene expression analysis was performed by student's t-test. […]

H1355 T16 = experiment: MTS cell viability assay, H1355 T16 resistant variant vs H1355 Parental; format: cell-based, human; details: H1355 T16 vs H1355 Parental
Description: NSCLC lines were treated with paclitaxel+carboplatin combination, given in a ˜2:3 wt/wt ratio, to mirror the clinical dosage values of ˜225 mg/m2 and ˜330 mg/m2, paclitaxel and carboplatin respectively. Note that considering the molecular weights of the two drugs, this translates to approximately a 1 to 3.4 molar ratio. Drugs were given in cycles, following a drug on/drug off treatment scheme. Each cycle consisted of 4-5 days of drug treatment and drug-free culturing for about 1-2 weeks or more to allow the surviving cells to repopulate the plate. […] Untreated parental cells were simultaneously maintained at all times for comparison. Cell viability was assessed in 96-well plates using standard MTS assays (Promega). Treatment duration in MTS assays was 4 days. Drugs were tested in two- or four-fold serial dilutions, totaling 8 different drug concentrations, with 8 replicates per concentration. Response was validated in multiple replicate plates (n≥3).
Cell viability was assessed by standard MTS assays using Promega's CellTiter reagents. Eight drug concentrations given as two- or four-fold dilutions were tested for each chemotherapeutic agent. In addition, each experiment contained eight replicates per concentration and the entire assay was performed in multiple replicates (n≥3).

H1299 = experiment: Clonogenic survival with ionizing radiation, H1299; format: cell-based, Human; details: 16 nM JIB-04; for radiosensitization (clonogenic survival): drug 4 h before IR, 175 nM GSK-J4
Description: (§1) Cells were serially diluted to appropriate concentrations and plated into 60-mm dish in triplicate for 4 h. Then cells were treated with the indicated drugs, and irradiated 4 hours later with graded doses of radiation for concurrent treatment or irradiated and 4 hours later the drugs added for post-treatment. All cells were irradiated at room temperature in ambient air using a 137Cs source (Mark 1-68 irradiator, JL Shepherd & Associated). Surviving colonies were stained with crystal violet approximately 10 to 14 days later and colonies formed with more than 50 cells were counted. Clonogenic fraction of irradiated cells was normalized to the plating efficiency of unirradiated controls. The data are presented as the mean±SD. The curve S=e^−(αD+βD2) was fitted to the experimental data using a least square fit algorithm using the program Sigma Plot 11.0 (Systat Software, Inc.).

A549 = experiment: Clonogenic survival with ionizing radiation, A549; format: cell-based, Human; details: 25 nM JIB-04; for radiosensitization (clonogenic survival): drug 4 h before IR
Description: as §1

[1] = system: H3K4me3 demethylase activity; experiment: Histone demethylase activity in tumor lysates by ELISA (H3K4me3); format: in vivo; details: H1299 T18 xenografts, drug-treated vs vehicle
Source text: To evaluate whether the targeted KDM enzymatic activity was reduced in the JmjC inhibitor-treated tumors in vivo, the inventors measured histone demethylase activity in drug-treated and vehicle-control tumor lysates by ELISA. […] Altogether, the results confirmed reduction of the targeted KDM enzymatic activity with cytostatic/cytotoxic effects in JmjC inhibitor-treated chemoresistant xenografts.

H1299 T18 cells = experiment: Microarray gene expression after 24 h treatment, H1299 T18 cells; format: cell-based, human; details: for expression difference of top up-regulated gene / gene expression changes (total probes): 24 h; for expression difference of top up-regulated gene / gene expression changes (total probes) / Illumina probes reversed in expression / genes reversed in expression: 0.2 μM JIB-04 or 1 μM GSK-J4; for gene expression changes (total probes): fold changes ≥1.5, P ≤0.05; for Illumina probes reversed in expression / genes reversed in expression: reversal of changes acquired with taxane-platin resistance
Description: Gene expression profiling was performed using Illumina HumanWG-6 V3 BeadArrays (for NSCLC patient tumors) or Illumina HumanHT-12 V4 BeadArrays (for cell lines and xenografts). […] Data were pre-processed using the R package mbcb for background correction (Ding et al., 2008), then log-transformed and quantile-normalized with the R package preprocessCore or using in-house MATRIX software ([…]). Microarray data can be found under GEO accession GSE77209. Log ratios, unpaired t-test p values and color-coded heat maps were obtained using MATRIX. For comparisons involving progressively resistant cell line series, analyses were performed using R package by fitting linear regression model on gene expression data against the log transformed IC50 values as measures of drug response. We fitted beta-uniform mixture model to a set of p-values using the R package ClassComparison. […] For xenograft data, differential gene expression analysis was performed by student's t-test. Using 35 gene signature, unsupervised hierarchical clustering (Eisen et al., 1998) was performed to separate neoadjuvant chemotherapy treated patients into two groups. Clustering was based on Euclidean distance matrix and maximum linkage method. Kaplan-Meier survival analysis and multivariate Cox regression were performed by R survival package and replotted using Graphpad Prism 6.00 (GraphPad Software, La Jolla, Calif. USA). R code is provided in […] report.

Row | Structure (SMILES) | gene expression changes (total probes) (H1299 Parental cells) [probes] | sensitivity of resistant variant compared to parental cells (H1355 T16) | H1355 T16 SR (Selectivity Ratio) (H1355 T16; SR = [IC50 of Parental]/[IC50 of Resistant]) | radiosensitization, JIB-04 before IR vs 4 h post-irradiation (H1299) | radiosensitization (clonogenic survival) (H1299) | radiosensitization, JIB-04 before IR vs 4 h post-irradiation (A549) | radiosensitization (clonogenic survival) (A549) | H3K4me3 demethylase activity in tumor lysates [1] | expression difference of top up-regulated gene (H1299 T18 cells) [fold] | gene expression changes (total probes) (H1299 T18 cells) [probes] | top reversed down-regulated gene, fold change (down) (H1299 T18 cells; LEAP2 for JIB-04, TAF9B for GSK-J4) [fold] | top reversed up-regulated gene, fold change (up) (H1299 T18 cells; YPEL2 for JIB-04, BNIP3 for GSK-J4) [fold] | Illumina probes reversed in expression (H1299 T18 cells) | genes reversed in expression (H1299 T18 cells) [genes]
1 | Clc1ccc(N/N=C(\c2ccccc2)c2ccccn2)nc1 [JIB-04] | 519 | higher sensitivity | 2.8 | significantly more robust when administering JIB-04 first | had a radiosensitization/radioenhancement effect | significantly more robust when administering JIB-04 first | had a radiosensitization/radioenhancement effect | significantly inhibited | ~16 | 1469 | ~5 | ~16 | About 195 probes | 187
2 | CCOC(=O)CCNc1cc(N2CCc3ccccc3CC2)nc(-c2ccccn2)n1 [GSK-J4] | 224 | higher sensitivity |  |  | failed to radiosensitize |  | failed to radiosensitize | without reducing H3K4me3 or H3K9me3 demethylase activity | ~25 | 710 |  |  | 110 probes | 108
